Measured values: PubChem BioAssay (NCI)
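Step 1: Grow cells in 96-well plates. Step 2: Expose to compound for 48 hours at 5 concentrations. Step 3: Interpolate endpoints linearly; if unreached, use highest concentration. GI50: concentration for 50% inhibition of growth. TGI denotes the concentration required for complete inhibition of growth.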

Legend:
Test in all cases: growth of human tumour cells (NCI), 48 h; in the data active = GI50 below about 0.43 µM; inactive = the rest
A549 NSCLC = tested on: A549 NSCLC
T-47D breast = tested on: T-47D breast
HOP-62 NSCLC = tested on: HOP-62 NSCLC
A498 renal = tested on: A498 renal
MDA-MB-435 = tested on: MDA-MB-435
HCT-116 colon = tested on: HCT-116 colon
UACC-62 melanoma = tested on: UACC-62 melanoma
IGROV1 ovarian = tested on: IGROV1 ovarian
MDA-MB-231 breast = tested on: MDA-MB-231 breast
U251 CNS = tested on: U251 CNS
SW-620 colon = tested on: SW-620 colon
HCT-15 colon = tested on: HCT-15 colon
HT29 colon = tested on: HT29 colon
DU-145 prostate = tested on: DU-145 prostate
SF-268 CNS = tested on: SF-268 CNS
SR leukemia = tested on: SR leukemia
NCI-H460 lung = tested on: NCI-H460 lung
OVCAR-5 ovarian = tested on: OVCAR-5 ovarian
SK-MEL-2 melanoma = tested on: SK-MEL-2 melanoma
HOP-92 NSCLC = tested on: HOP-92 NSCLC
MALME-3M melanoma = tested on: MALME-3M melanoma
TK-10 renal = tested on: TK-10 renal
MOLT-4 leukemia = tested on: MOLT-4 leukemia
HS 578T breast = tested on: HS 578T breast
SF-295 CNS = tested on: SF-295 CNS
KM12 colon = tested on: KM12 colon
UACC-257 melanoma = tested on: UACC-257 melanoma
MDA-N = tested on: MDA-N
OVCAR-8 ovarian = tested on: OVCAR-8 ovarian
K-562 leukemia = tested on: K-562 leukemia
CAKI-1 renal = tested on: CAKI-1 renal
ACHN renal = tested on: ACHN renal
SN12C renal = tested on: SN12C renal
SNB-19 CNS = tested on: SNB-19 CNS
HL-60(TB) leukemia = tested on: HL-60(TB) leukemia
UO-31 renal = tested on: UO-31 renal
786-0 renal = tested on: 786-0 renal
BT-549 breast = tested on: BT-549 breast
M14 melanoma = tested on: M14 melanoma
RXF 393 renal = tested on: RXF 393 renal
NCI-H226 lung = tested on: NCI-H226 lung
NCI-H23 lung = tested on: NCI-H23 lung
PC-3 prostate = tested on: PC-3 prostate
NCI/ADR-RES ovarian = tested on: NCI/ADR-RES ovarian
NCI-H522 lung = tested on: NCI-H522 lung
EKVX NSCLC = tested on: EKVX NSCLC
OVCAR-4 ovarian = tested on: OVCAR-4 ovarian
SK-MEL-28 melanoma = tested on: SK-MEL-28 melanoma
RPMI-8226 leukemia = tested on: RPMI-8226 leukemia
OVCAR-3 ovarian = tested on: OVCAR-3 ovarian
LOX IMVI melanoma = tested on: LOX IMVI melanoma
SK-MEL-5 melanoma = tested on: SK-MEL-5 melanoma
CCRF-CEM leukemia = tested on: CCRF-CEM leukemia
SK-OV-3 ovarian = tested on: SK-OV-3 ovarian
COLO 205 colon = tested on: COLO 205 colon
HCC-2998 colon = tested on: HCC-2998 colon
SF-539 CNS = tested on: SF-539 CNS
SNB-75 CNS = tested on: SNB-75 CNS
MCF7 breast = tested on: MCF7 breast

O=[N+]([O-])c1cc(-c2ccc([As](=O)(O)O)cc2)ccc1[As](=O)(O)O
> 100 µM: TGI (A549 NSCLC) | TGI (T-47D breast) | TGI (HOP-62 NSCLC) | TGI (A498 renal) | TGI (MDA-MB-435) | TGI (HCT-116 colon) | TGI (UACC-62 melanoma) | TGI (IGROV1 ovarian) | TGI (MDA-MB-231 breast) | TGI (U251 CNS) | TGI (SW-620 colon) | TGI (HCT-15 colon) | TGI (HT29 colon) | TGI (DU-145 prostate) | TGI (SF-268 CNS) | TGI (SR leukemia) | TGI (NCI-H460 lung) | TGI (OVCAR-5 ovarian) | TGI (SK-MEL-2 melanoma) | TGI (HOP-92 NSCLC) | TGI (MALME-3M melanoma) | TGI (TK-10 renal) | TGI (MOLT-4 leukemia) | TGI (HS 578T breast) | TGI (SF-295 CNS) | TGI (KM12 colon) | TGI (UACC-257 melanoma) | TGI (MDA-N) | TGI (OVCAR-8 ovarian) | TGI (K-562 leukemia) | TGI (CAKI-1 renal) | TGI (ACHN renal) | TGI (SN12C renal) | TGI (SNB-19 CNS) | TGI (HL-60(TB) leukemia) | TGI (UO-31 renal) | TGI (786-0 renal) | TGI (BT-549 breast) | TGI (M14 melanoma) | TGI (RXF 393 renal) | TGI (NCI-H226 lung) | TGI (NCI-H23 lung) | TGI (PC-3 prostate) | TGI (NCI/ADR-RES ovarian) | TGI (NCI-H522 lung) | TGI (EKVX NSCLC) | TGI (OVCAR-4 ovarian) | TGI (SK-MEL-28 melanoma) | TGI (RPMI-8226 leukemia) | TGI (OVCAR-3 ovarian) | TGI (LOX IMVI melanoma) | TGI (SK-MEL-5 melanoma) | TGI (CCRF-CEM leukemia)

CNC(=O)/C(C#N)=C(\N)N1CCCC1
> 100 µM: TGI (A549 NSCLC) | TGI (T-47D breast) | TGI (HOP-62 NSCLC) | TGI (A498 renal) | TGI (MDA-MB-435) | TGI (HCT-116 colon) | TGI (UACC-62 melanoma) | TGI (IGROV1 ovarian) | TGI (MDA-MB-231 breast) | TGI (U251 CNS) | TGI (SW-620 colon) | TGI (HCT-15 colon) | TGI (HT29 colon) | TGI (SK-OV-3 ovarian) | TGI (DU-145 prostate) | TGI (COLO 205 colon) | TGI (SF-268 CNS) | TGI (SR leukemia) | TGI (NCI-H460 lung) | TGI (OVCAR-5 ovarian) | TGI (SK-MEL-2 melanoma) | TGI (HCC-2998 colon) | TGI (MALME-3M melanoma) | TGI (TK-10 renal) | TGI (MOLT-4 leukemia) | TGI (HS 578T breast) | TGI (KM12 colon) | TGI (MDA-N) | TGI (OVCAR-8 ovarian) | TGI (K-562 leukemia) | TGI (CAKI-1 renal) | TGI (ACHN renal) | TGI (SN12C renal) | TGI (SNB-19 CNS) | TGI (HL-60(TB) leukemia) | TGI (UO-31 renal) | TGI (786-0 renal) | TGI (RXF 393 renal) | TGI (NCI-H226 lung) | TGI (NCI-H23 lung) | TGI (PC-3 prostate) | TGI (NCI/ADR-RES ovarian) | TGI (NCI-H522 lung) | TGI (EKVX NSCLC) | TGI (SK-MEL-28 melanoma) | TGI (RPMI-8226 leukemia) | TGI (OVCAR-3 ovarian) | TGI (SF-539 CNS) | TGI (SK-MEL-5 melanoma) | TGI (CCRF-CEM leukemia)

COc1cc(N2CCN(C(C)C)CC2)ccc1Nc1nc(Nc2ccc(F)cc2C(N)=O)c2cc[nH]c2n1
8.16 µM: TGI (HCT-15 colon)
3.72 µM: TGI (NCI-H460 lung)
5.2 µM: TGI (ACHN renal)
6.13 µM: TGI (U251 CNS)
7.04 µM: TGI (OVCAR-4 ovarian)
2.88 µM: TGI (HT29 colon)
15.2 µM: TGI (K-562 leukemia)
4.07 µM: TGI (M14 melanoma) | TGI (MCF7 breast)
0.126 µM: TGI (COLO 205 colon)
5.28 µM: TGI (UO-31 renal) | TGI (SK-MEL-5 melanoma)
6.33 µM: TGI (SF-539 CNS)
6.32 µM: TGI (SNB-75 CNS)
4.7 µM: TGI (HL-60(TB) leukemia)
6.27 µM: TGI (OVCAR-5 ovarian)
7.19 µM: TGI (EKVX NSCLC)
7.92 µM: TGI (SF-268 CNS)
3.6 µM: TGI (HCT-116 colon)
5.27 µM: TGI (RXF 393 renal)
8.2 µM: TGI (T-47D breast)
12.5 µM: TGI (RPMI-8226 leukemia)
9.8 µM: TGI (HS 578T breast)
5.9 µM: TGI (SN12C renal)
6.43 µM: TGI (OVCAR-3 ovarian)
7.22 µM: TGI (MDA-MB-231 breast)
5.43 µM: TGI (OVCAR-8 ovarian)
inactive: GI50 (T-47D breast) 3.49 µM | GI50 (HOP-62 NSCLC) 0.668 µM | GI50 (UACC-62 melanoma) 2.53 µM | GI50 (MDA-MB-231 breast) 2.98 µM | GI50 (U251 CNS) 2.72 µM | GI50 (SF-268 CNS) 3.36 µM | GI50 (HCC-2998 colon) 0.558 µM | GI50 (MOLT-4 leukemia) 5.24 µM | GI50 (HS 578T breast) 2.67 µM | GI50 (SF-295 CNS) 3.99 µM | GI50 (KM12 colon) 3.14 µM | GI50 (K-562 leukemia) 3.31 µM | GI50 (CAKI-1 renal) 0.911 µM | GI50 (ACHN renal) 0.502 µM | GI50 (SN12C renal) 2.54 µM | GI50 (SNB-19 CNS) 3.98 µM | GI50 (UO-31 renal) 0.996 µM | GI50 (786-0 renal) 1.33 µM | GI50 (BT-549 breast) 3.28 µM | GI50 (RXF 393 renal) 0.857 µM | GI50 (NCI-H226 lung) 1.11 µM | GI50 (PC-3 prostate) 3.75 µM | GI50 (NCI/ADR-RES ovarian) 3.76 µM | GI50 (NCI-H522 lung) 2.8 µM | GI50 (EKVX NSCLC) 0.48 µM | GI50 (OVCAR-4 ovarian) 2.98 µM | GI50 (SK-MEL-28 melanoma) 3.69 µM | GI50 (RPMI-8226 leukemia) 3.69 µM | GI50 (SNB-75 CNS) 3.04 µM | GI50 (OVCAR-3 ovarian) 3.08 µM | GI50 (SF-539 CNS) 2.76 µM | GI50 (SK-MEL-5 melanoma) 0.747 µM
5.29 µM: TGI (CAKI-1 renal)
1.77 µM: TGI (SK-MEL-2 melanoma)
5.63 µM: TGI (HCC-2998 colon)
5.6 µM: TGI (UACC-257 melanoma)
6.42 µM: TGI (UACC-62 melanoma) | TGI (NCI-H522 lung)
4.68 µM: TGI (TK-10 renal)
4.63 µM: TGI (DU-145 prostate) | TGI (LOX IMVI melanoma)
6.93 µM: TGI (BT-549 breast)
5.26 µM: TGI (HOP-62 NSCLC)
active: GI50 (A549 NSCLC) 0.121 µM | GI50 (A498 renal) 0.165 µM | GI50 (MDA-MB-435) 0.242 µM | GI50 (HCT-116 colon) 0.119 µM | GI50 (IGROV1 ovarian) 0.392 µM | GI50 (SW-620 colon) 0.0905 µM | GI50 (HCT-15 colon) 0.387 µM | GI50 (HT29 colon) 0.0208 µM | GI50 (SK-OV-3 ovarian) 0.317 µM | GI50 (DU-145 prostate) 0.234 µM | GI50 (COLO 205 colon) 0.0241 µM | GI50 (SR leukemia) 0.0145 µM | GI50 (NCI-H460 lung) 0.0985 µM | GI50 (OVCAR-5 ovarian) 0.245 µM | GI50 (SK-MEL-2 melanoma) 0.163 µM | GI50 (HOP-92 NSCLC) 0.0148 µM | GI50 (MALME-3M melanoma) 0.228 µM | GI50 (TK-10 renal) 0.17 µM | GI50 (UACC-257 melanoma) 0.194 µM | GI50 (OVCAR-8 ovarian) 0.363 µM | GI50 (HL-60(TB) leukemia) 0.0594 µM | GI50 (M14 melanoma) 0.18 µM | GI50 (NCI-H23 lung) 0.304 µM | GI50 (LOX IMVI melanoma) 0.124 µM | GI50 (CCRF-CEM leukemia) 0.277 µM | GI50 (MCF7 breast) 0.0154 µM
10.1 µM: TGI (SR leukemia)
7.59 µM: TGI (SK-MEL-28 melanoma)
12.9 µM: TGI (PC-3 prostate)
21.3 µM: TGI (CCRF-CEM leukemia)
6.65 µM: TGI (NCI-H226 lung) | TGI (NCI-H23 lung)
10.3 µM: TGI (SF-295 CNS)
5.22 µM: TGI (MALME-3M melanoma)
11.4 µM: TGI (SNB-19 CNS)
6.94 µM: TGI (IGROV1 ovarian)
4.17 µM: TGI (A549 NSCLC) | TGI (SW-620 colon)
0.687 µM: TGI (HOP-92 NSCLC)
11.6 µM: TGI (NCI/ADR-RES ovarian)
3.03 µM: TGI (SK-OV-3 ovarian)
7.97 µM: TGI (KM12 colon)
3.65 µM: TGI (A498 renal)
15.4 µM: TGI (MOLT-4 leukemia)
5.45 µM: TGI (MDA-MB-435) | TGI (786-0 renal)
